Measured values: patent publication US20090124631A1, “Combination Therapy” (priority 2007, published 2009)

How the values were obtained:
Assay type in all cases: biochemical
[1] = tested on: recombinant human HDAC enzymes; test: HDAC isotype selectivity across recombinant HDAC enzymes; settings: from Table 1
Description: cDNAs of human HDAC1-8 and 11 were generated by RT-PCR reactions using primers complementary to the 5′ and 3′ coding sequence of human HDAC gene sequences in GenBank. cDNAs corresponding to the full length human HDAC1, 2, 3 and 11 were cloned into pBlueBac4.5 vector (Invitrogen). The constructs were used to generate recombinant baculoviruses using the Bac-N-Blue™ DNA according to the manufacturer's instructions (Invitrogen). The recombinant HDAC1, 2, 3, 11 proteins produced harbor a FLAG tag at their C-termini. cDNAs encoding truncated versions of HDAC4, 5 and 7 encompassing their deacetylase domains were cloned into pDEST10 as an N-terminal hexahistidine fusion protein and recombinant baculoviruses were generated using the Bac-to-Bac™ Baculovirus expression system (Invitrogen). HDAC6 and 8 were cloned as full length N-terminally His-tagged protein. All HDAC proteins were expressed in insect Sf-9 cells (Spodoptera frugiperdai) upon infection with recombinant baculovirus. HDAC1 enzyme was purified from the Q-sepharose FF column (Amersham Pharmacia Biotech, Baie d'Urfe QC, Canada) followed by an anti-FLAG immunoaffinity column (Sigma). […] HDAC4, 5, 6, 7 and 8 were purified using either Ni-NTA resin (QIAGEN Mississauga ON, Canada) or His-Select resin (Sigma) with step washes and elution with different concentrations of imidazole in Buffer containing 25 mM Tris (or NaPO4) pH 8.0, 10% glycerol and 150 mM or 500 mM NaCl.
(§1) Boc-Lys(Ac)-AMC (for HDAC1, 2, 3, 6, and 8 enzymes), which was purchased from Bachem Biosciences Inc., (King of Prussia, Philadelphia) were added into enzyme-compound mixture and incubated at 37° C. For HDAC4, 5, 7 assays, Boc-Lys(TFA)-AMC, which was synthesized in house, was used as substrate and 0.1% BSA was added to the buffer. […] Reaction time was predetermined to ensure that reaction was linear for the incubation time. Reaction was stopped by adding a freshly prepared trypsin (1 mg/ml final concentration) with 1 μM TSA (Biomol) in assay buffer. After 30 minutes, fluorescence was measured using a fluorometer (SPECTRAMAX GeminiXS, Molecular Devices, Sunnylvale, Calif.).

HDAC5 = target: T1, HDAC5 (Homo sapiens, UniProt Q9UQL6); test: Fluorescence-based HDAC enzyme assay, recombinant HDAC5; settings: recombinant human HDAC enzyme in vitro; read-out: IC50 (μM) HD5
T1 construct: cDNAs encoding truncated versions of HDAC4, 5 and 7 encompassing their deacetylase domains; hexahistidine (N); made in house; host or cells: Sf-9 insect cells (baculovirus)
T1 sequence (Q9UQL6 684-1028 limits assumed): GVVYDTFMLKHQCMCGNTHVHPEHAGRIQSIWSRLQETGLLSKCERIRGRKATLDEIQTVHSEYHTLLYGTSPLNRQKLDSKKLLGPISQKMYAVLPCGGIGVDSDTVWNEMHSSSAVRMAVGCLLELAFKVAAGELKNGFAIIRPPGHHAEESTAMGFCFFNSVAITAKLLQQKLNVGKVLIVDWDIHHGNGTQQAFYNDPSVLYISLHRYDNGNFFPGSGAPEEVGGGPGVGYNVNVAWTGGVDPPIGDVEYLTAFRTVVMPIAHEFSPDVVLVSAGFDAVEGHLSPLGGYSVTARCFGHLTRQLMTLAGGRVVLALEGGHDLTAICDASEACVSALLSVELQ
Description: (§2) cDNAs of human HDAC1-8 and 11 were generated by RT-PCR reactions using primers complementary to the 5′ and 3′ coding sequence of human HDAC gene sequences in GenBank. cDNAs corresponding to the full length human HDAC1, 2, 3 and 11 were cloned into pBlueBac4.5 vector (Invitrogen). The constructs were used to generate recombinant baculoviruses using the Bac-N-Blue™ DNA according to the manufacturer's instructions (Invitrogen). The recombinant HDAC1, 2, 3, 11 proteins produced harbor a FLAG tag at their C-termini. cDNAs encoding truncated versions of HDAC4, 5 and 7 encompassing their deacetylase domains were cloned into pDEST10 as an N-terminal hexahistidine fusion protein and recombinant baculoviruses were generated using the Bac-to-Bac™ Baculovirus expression system (Invitrogen). HDAC6 and 8 were cloned as full length N-terminally His-tagged protein. All HDAC proteins were expressed in insect Sf-9 cells (Spodoptera frugiperdai) upon infection with recombinant baculovirus. HDAC1 enzyme was purified from the Q-sepharose FF column (Amersham Pharmacia Biotech, Baie d'Urfe QC, Canada) followed by an anti-FLAG immunoaffinity column (Sigma). HDAC2, 3 and 11 were purified using Flag-antibody immunoaffinity purification. HDAC4, 5, 6, 7 and 8 were purified using either Ni-NTA resin (QIAGEN Mississauga ON, Canada) or His-Select resin (Sigma) with step washes and elution with different concentrations of imidazole in Buffer containing 25 mM Tris (or NaPO4) pH 8.0, 10% glycerol and 150 mM or 500 mM NaCl.
as §1, with “Recombinant HDAC enzymes were incubated with diluted compounds in assay buffer (25 mM Hepes, pH 8.0, 137 mM NaCl, 1 mM MgCl2 and 2.7 mM KCl) for 10 minutes at ambient temperatures in black 96-well plate. Boc-Lys(Ac)-AMC” for “Boc-Lys(Ac)-AMC”, “Calif.). The 50% inhibitory concentrations (IC50) for inhibitors were determined by analyzing dose-response inhibition curves.” for “Calif.).”

HDAC7 = target: T2, HDAC7 (Homo sapiens, UniProt Q8WUI4); test: Fluorescence-based HDAC enzyme assay, recombinant HDAC7; settings: recombinant human HDAC enzyme in vitro; read-out: IC50 (μM) HD7
T2 construct: cDNAs encoding truncated versions of HDAC4, 5 and 7 encompassing their deacetylase domains; hexahistidine (N); made in house; host or cells: Sf-9 insect cells (baculovirus)
T2 sequence (Q8WUI4 512-865 limits assumed): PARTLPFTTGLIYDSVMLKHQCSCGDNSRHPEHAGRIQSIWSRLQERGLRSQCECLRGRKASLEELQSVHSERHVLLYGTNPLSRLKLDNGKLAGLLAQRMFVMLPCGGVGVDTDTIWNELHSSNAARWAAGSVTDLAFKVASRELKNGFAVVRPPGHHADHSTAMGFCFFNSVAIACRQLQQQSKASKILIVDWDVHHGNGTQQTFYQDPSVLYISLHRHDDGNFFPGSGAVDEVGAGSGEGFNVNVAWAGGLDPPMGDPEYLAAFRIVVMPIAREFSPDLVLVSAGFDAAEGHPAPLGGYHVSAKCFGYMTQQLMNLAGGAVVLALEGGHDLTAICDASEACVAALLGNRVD
Description: as §2
as §1, with “Recombinant HDAC enzymes were incubated with diluted compounds in assay buffer (25 mM Hepes, pH 8.0, 137 mM NaCl, 1 mM MgCl2 and 2.7 mM KCl) for 10 minutes at ambient temperatures in black 96-well plate. Boc-Lys(Ac)-AMC” for “Boc-Lys(Ac)-AMC”, “Calif.). The 50% inhibitory concentrations (IC50) for inhibitors were determined by analyzing dose-response inhibition curves.” for “Calif.).”

Row | Structure (SMILES) | HDAC isotype selectivity [1] | IC50 (HDAC5) [µM] | IC50 (HDAC7) [µM]
1 | CN1CCN(c2ccc(C(=O)Nc3cc(-c4ccncc4)ccc3N)cc2)CC1 [Compound G] | selective for HDAC1 and HDAC 2 | > 10 | > 10
2 | Nc1ccccc1NC(=O)c1ccc(N2CC[C@H](Nc3cccnc3)C2)cc1 [Compound B] | selective inhibitors of HDAC1, 2 and 3 | > 10 | > 10
3 | Nc1ccc(-c2ccccc2)cc1NC(=O)c1ccc(N2CC[C@H](N)C2)cc1 [Compound D] | selective for HDAC1 and HDAC 2 | > 10 | > 10
4 | CN1CCN(c2ccc(C(=O)Nc3cc(-c4ccccn4)ccc3N)cc2)CC1 [Compound F] | selective for HDAC1 and HDAC 2 | > 10 | > 10
5 | Nc1ccccc1NC(=O)c1ccc(CNc2nccc(-c3cccnc3)n2)cc1 [Compound A] | – | > 10 | > 10

Continued, values first:

Row | HDAC isotype selectivity [1] | IC50 (HDAC5) [µM] | IC50 (HDAC7) [µM] | Structure (SMILES)
6 | selective for HDAC1 and HDAC 2 | > 10 | > 10 | Nc1ccc(-c2ccccc2)cc1NC(=O)c1ccc(N2CCC(N)CC2)cc1 [Compound E]
7 | selective for HDAC1 and HDAC 2 | > 10 | > 10 | CC(C)N1CCN(c2ccc(C(=O)Nc3cc(-c4ccncc4)ccc3N)cc2)CC1 [Compound H]
